Key:
HeLa = assay: MTS proliferation assay; type: cell-based, human; details: 72 h
Method: (§1) The assay is performed in 96 well tissue culture plates. […] The test compounds are added in 20 μl complete medium containing max 5% DMSO. The final compound concentrations in the assays are 10 μM, 3 μM, 1 μM and 0.3 μM, respectively. The assay plates are incubated for 72 h at culture conditions. The MTS reagent is prepared according to the manufacturer's protocol (Promega G1111). 20 μl MTS reagent are added to each well, the assay plates are quickly spun and incubated for another 3 h at culture conditions. Subsequently, the plates are shortly shacked and absorption measured with a microplate-reader at 492 nm.

[1] = Hoechst 33342 nuclear staining; type: cell-based; details: for Hoechst 33342 nuclear staining score, HeLa: HeLa cells; for Hoechst 33342 nuclear staining score, Jurkat: Jurkat cells; for Hoechst 33342 nuclear staining score, H460: H460 cells; for Hoechst 33342 nuclear staining score, Jily: Jily cells; for Hoechst 33342 nuclear staining score, MRC5: MRC5 cells;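 on all read-outs here: apoptotic nuclei scored 0 none 1 weak under 50% of cells 2 strong over 50% of cells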
Method: This assay is performed in 96 well tissue culture plates. Appropriate number of cells (adherent cells: 3-5*10^3, suspension cells: 8-10*10^3) are being seeded out in 80 μl complete medium. Adherent cells are incubated for 24 h for proper spreading out before addition of test compounds while suspension cells are immediately treated with test compounds after seeding out. The test compounds are added in 20 μl complete medium containing max 5% DMSO. […] […] The assay plates are then further incubated for 30 min and subsequently analyzed with a standard inverted fluorescence microscope.
The readout allows the determination of the fraction of apoptotic nuclei as well as other morphological criteria specific for apoptosis as a function of the treatment. The following scores are used: 0 relating to no activity, 1 relating to weak activity comprising less than 50% of the cells and score 2 relating to strong activity comprising more than 50% of the cells.

MRC5 = assay: MTS proliferation assay; type: cell-based; details: MRC5, 72 h
Method: as §1

[2] = conc 0.1 (final concentrations in μM), 24 h or 48 h incubation
[3] = conc 0.3 (final concentrations in μM), 24 h or 48 h incubation
[4] = conc 1 (final concentrations in μM), 24 h or 48 h incubation
[5] = conc 3 (final concentrations in μM), 24 h or 48 h incubation
[6] = conc 10 (final concentrations in μM), 24 h or 48 h incubation

Cc1ccc(S(=O)(=O)n2cc(CNc3ccc(N4CCOCC4)cc3)cc2-c2cccs2)cc1 [Example 9]
IC50 (HeLa): > 1000 nM
Hoechst 33342 nuclear staining score, HeLa [1, 2]: 0
Hoechst 33342 nuclear staining score, HeLa [1, 3]: 0
Hoechst 33342 nuclear staining score, HeLa [1, 4]: 0
Hoechst 33342 nuclear staining score, HeLa [1, 5]: 1 (weak activity comprising less than 50% of the cells)
Hoechst 33342 nuclear staining score, Jurkat [1, 2]: 0
Hoechst 33342 nuclear staining score, Jurkat [1, 3]: 0
Hoechst 33342 nuclear staining score, Jurkat [1, 4]: 0
Hoechst 33342 nuclear staining score, Jurkat [1, 5]: 2 (strong activity comprising more than 50% of the cells)

Cc1ccc(S(=O)(=O)n2cc(CNCCc3ccccc3)cc2-c2ccc3c(c2)OCO3)cc1 [Example 43]
IC50 (MRC5): > 1000 nM
IC50 (HeLa): > 1000 nM
Hoechst 33342 nuclear staining score, HeLa [1, 3]: 0
Hoechst 33342 nuclear staining score, HeLa [1, 4]: 0
Hoechst 33342 nuclear staining score, HeLa [1, 5]: 0
Hoechst 33342 nuclear staining score, HeLa [1, 6]: 0
Hoechst 33342 nuclear staining score, Jurkat [1, 3]: 0
Hoechst 33342 nuclear staining score, Jurkat [1, 4]: 0
Hoechst 33342 nuclear staining score, Jurkat [1, 5]: 0
Hoechst 33342 nuclear staining score, Jurkat [1, 6]: 0

Cc1ccc(S(=O)(=O)n2cc(CNCCCN3CCN(C)CC3)cc2-c2ccc3c(c2)OCO3)cc1.Cl.Cl [Example 13]
Hoechst 33342 nuclear staining score, HeLa [1, 2]: 0
Hoechst 33342 nuclear staining score, HeLa [1, 3]: 0
Hoechst 33342 nuclear staining score, HeLa [1, 4]: 0
Hoechst 33342 nuclear staining score, HeLa [1, 5]: 0
Hoechst 33342 nuclear staining score, Jurkat [1, 2]: 0
Hoechst 33342 nuclear staining score, Jurkat [1, 3]: 0
Hoechst 33342 nuclear staining score, Jurkat [1, 4]: 0
Hoechst 33342 nuclear staining score, Jurkat [1, 5]: 0

Cc1ccc(S(=O)(=O)n2cc(CNCCc3ccccc3)cc2-c2cccs2)cc1 [Example 7]
IC50 (HeLa): > 1000 nM
Hoechst 33342 nuclear staining score, HeLa [1, 2]: 0
Hoechst 33342 nuclear staining score, HeLa [1, 3]: 0
Hoechst 33342 nuclear staining score, HeLa [1, 4]: 0
Hoechst 33342 nuclear staining score, HeLa [1, 5]: 0
Hoechst 33342 nuclear staining score, Jurkat [1, 2]: 0
Hoechst 33342 nuclear staining score, Jurkat [1, 3]: 0
Hoechst 33342 nuclear staining score, Jurkat [1, 4]: 0
Hoechst 33342 nuclear staining score, Jurkat [1, 5]: 0

Cc1ccc(S(=O)(=O)n2cc(CNCCCc3ccccc3)cc2-c2ccc3c(c2)OCO3)cc1 [Example 10]
IC50 (MRC5): > 1000 nM
IC50 (HeLa): > 1000 nM
Hoechst 33342 nuclear staining score, HeLa [1, 2]: 0
Hoechst 33342 nuclear staining score, HeLa [1, 3]: 0
Hoechst 33342 nuclear staining score, HeLa [1, 4]: 0
Hoechst 33342 nuclear staining score, HeLa [1, 5]: 0
Hoechst 33342 nuclear staining score, Jurkat [1, 2]: 0
Hoechst 33342 nuclear staining score, Jurkat [1, 3]: 0
Hoechst 33342 nuclear staining score, Jurkat [1, 4]: 0
Hoechst 33342 nuclear staining score, Jurkat [1, 5]: 0

Cc1ccc(S(=O)(=O)n2cc(CNc3ccccn3)cc2-c2ccc3c(c2)OCO3)cc1 [Example 44]
IC50 (MRC5): > 1000 nM
IC50 (HeLa): > 1000 nM
Hoechst 33342 nuclear staining score, HeLa [1, 3]: 0
Hoechst 33342 nuclear staining score, HeLa [1, 4]: 0
Hoechst 33342 nuclear staining score, HeLa [1, 5]: 0
Hoechst 33342 nuclear staining score, HeLa [1, 6]: 2 (strong activity comprising more than 50% of the cells)
Hoechst 33342 nuclear staining score, Jurkat [1, 3]: 0
Hoechst 33342 nuclear staining score, Jurkat [1, 4]: 0
Hoechst 33342 nuclear staining score, Jurkat [1, 5]: 0
Hoechst 33342 nuclear staining score, Jurkat [1, 6]: 2 (strong activity comprising more than 50% of the cells)

COc1cc(-c2cc(-c3cncc(CN(C)C)c3)cn2S(=O)(=O)c2ccc(C)cc2)cc(OC)c1OC [Example 59]
IC50 (MRC5): > 1000 nM
IC50 (HeLa): > 1000 nM
Hoechst 33342 nuclear staining score, H460 ([1]; conc 0.1): 0
Hoechst 33342 nuclear staining score, H460 ([1]; conc 0.3): 0
Hoechst 33342 nuclear staining score, H460 ([1]; conc 1): 0
Hoechst 33342 nuclear staining score, H460 ([1]; conc 3): 2 (strong activity comprising more than 50% of the cells)
Hoechst 33342 nuclear staining score, HeLa ([1]; conc 0.1): 0
Hoechst 33342 nuclear staining score, HeLa ([1]; conc 0.3): 0
Hoechst 33342 nuclear staining score, HeLa ([1]; conc 1): 0
Hoechst 33342 nuclear staining score, HeLa ([1]; conc 3): 0
Hoechst 33342 nuclear staining score, Jily ([1]; conc 0.1): 0
Hoechst 33342 nuclear staining score, Jily ([1]; conc 0.3): 0
Hoechst 33342 nuclear staining score, Jily ([1]; conc 1): 0
Hoechst 33342 nuclear staining score, Jily ([1]; conc 3): 0
Hoechst 33342 nuclear staining score, Jurkat ([1]; conc 0.1): 0
Hoechst 33342 nuclear staining score, Jurkat ([1]; conc 0.3): 0
Hoechst 33342 nuclear staining score, Jurkat ([1]; conc 1): 0
Hoechst 33342 nuclear staining score, Jurkat ([1]; conc 3): 2 (strong activity comprising more than 50% of the cells)
Hoechst 33342 nuclear staining score, MRC5 ([1]; conc 0.1): 0
Hoechst 33342 nuclear staining score, MRC5 ([1]; conc 0.3): 0
Hoechst 33342 nuclear staining score, MRC5 ([1]; conc 1): 0
Hoechst 33342 nuclear staining score, MRC5 ([1]; conc 3): 0
Hoechst 33342 nuclear staining score, PBLs ([1]; conc 0.1): 0
Hoechst 33342 nuclear staining score, PBLs ([1]; conc 0.3): 0
Hoechst 33342 nuclear staining score, PBLs ([1]; conc 1): 0
Hoechst 33342 nuclear staining score, PBLs ([1]; conc 3): 0

Cc1ccc(S(=O)(=O)n2cc(CNCCCN(C)C)cc2-c2ccc3c(c2)OCO3)cc1 [Example 2, 4-(N-[3-Dimethylaminopropyl]-aminomethyl)-2-(3,4-methylenedioxyphenyl)-1-(p-toluenesulfonyl)-pyrrole]
IC50 (MRC5; Homo sapiens): > 1000 nM
IC50 (HeLa; Homo sapiens): > 1000 nM
Hoechst 33342 nuclear staining score, HeLa [1, 2]: 0
Hoechst 33342 nuclear staining score, HeLa [1, 3]: 0
Hoechst 33342 nuclear staining score, HeLa [1, 4]: 0
Hoechst 33342 nuclear staining score, HeLa [1, 5]: 0
Hoechst 33342 nuclear staining score, Jurkat [1, 2]: 0
Hoechst 33342 nuclear staining score, Jurkat [1, 3]: 0
Hoechst 33342 nuclear staining score, Jurkat [1, 4]: 0
Hoechst 33342 nuclear staining score, Jurkat [1, 5]: 0

Cc1ccc(S(=O)(=O)n2cc(CNc3ccc(CN4CCOCC4)cc3)cc2-c2ccc3c(c2)OCO3)cc1 [Example 41]
IC50 (MRC5): > 1000 nM
IC50 (HeLa): > 1000 nM
Hoechst 33342 nuclear staining score, HeLa [1, 3]: 0
Hoechst 33342 nuclear staining score, HeLa [1, 4]: 0
Hoechst 33342 nuclear staining score, HeLa [1, 5]: 0
Hoechst 33342 nuclear staining score, HeLa [1, 6]: 0
Hoechst 33342 nuclear staining score, Jurkat [1, 3]: 0
Hoechst 33342 nuclear staining score, Jurkat [1, 4]: 0
Hoechst 33342 nuclear staining score, Jurkat [1, 5]: 0
Hoechst 33342 nuclear staining score, Jurkat [1, 6]: 0

COc1ccc(CCNCc2cc(-c3ccc4c(c3)OCO4)n(S(=O)(=O)c3ccc(C)cc3)c2)cc1 [Example 11]
IC50 (HeLa): > 1000 nM
Hoechst 33342 nuclear staining score, HeLa [1, 2]: 0
Hoechst 33342 nuclear staining score, HeLa [1, 3]: 0
Hoechst 33342 nuclear staining score, HeLa [1, 4]: 0
Hoechst 33342 nuclear staining score, HeLa [1, 5]: 0
Hoechst 33342 nuclear staining score, Jurkat [1, 2]: 0
Hoechst 33342 nuclear staining score, Jurkat [1, 3]: 0
Hoechst 33342 nuclear staining score, Jurkat [1, 4]: 0
Hoechst 33342 nuclear staining score, Jurkat [1, 5]: 0

CCN(Cc1cc(-c2cccs2)n(S(=O)(=O)c2ccc(C)cc2)c1)c1ccc(OC)cc1OC [Example 1, 4(N-2,4-Dimethoxyphenyl-N-ethylaminomethyl)-2-(2-thienyl)-1-(p-toluene-sulfonyl)-pyrrole]
IC50 (MRC5): > 1000 nM
IC50 (HeLa): > 1000 nM

Cc1ccc(S(=O)(=O)n2cc(CNCCCN(C)C)cc2-c2ccc3c(c2)OCO3)cc1.Cl.Cl [2 × 2HCl]
Hoechst 33342 nuclear staining score, HeLa [1, 2]: 0
Hoechst 33342 nuclear staining score, HeLa [1, 3]: 0
Hoechst 33342 nuclear staining score, HeLa [1, 4]: 0
Hoechst 33342 nuclear staining score, HeLa [1, 5]: 0
Hoechst 33342 nuclear staining score, Jurkat [1, 2]: 0
Hoechst 33342 nuclear staining score, Jurkat [1, 3]: 0
Hoechst 33342 nuclear staining score, Jurkat [1, 4]: 0
Hoechst 33342 nuclear staining score, Jurkat [1, 5]: 0
